Experiment [1] has as its system TNF-alpha. The experiment in a line: Inhibition of LPS-induced TNF-alpha release by human monocytes. The format is cell-based. Particulars: Monocyte, read-out: Percent Inhibition of TNF-alpha Release.
Experiment [2] relates to TNF-alpha. The experiment in a line: Inhibition of LPS-induced TNF-alpha production in mice. It is filed as in vivo, mouse. To be noted: for Percent TNF Production (Mean ± SEM): plasma 1 h after LPS, vehicle = 100%, p < 0.05; for inhibition of LPS-induced TNF-alpha production in mice: 50 or 100 mg/kg oral.
In the next experiment the test system is DBA/1J mice. The experiment in a line: Collagen-induced arthritis in mice. The format is in vivo, mouse.
Where [3] appears, read: high dose, 100 mg/kg oral twice daily 14 days.

A word on the inhibition: it is how much of the control response was suppressed. For the molecule `COc1cc(/C=C(/C(=O)N(C)C)c2ccc(Oc3ccc(CC(C(N)=O)C(N)=O)cc3)cc2)cc(OC)c1` [Compound 59, 2-(4-{4-[2-(3,5-dimethoxyphenyl)-1-dimethylcarbamoylvinyl]-phenoxy}-benzyl)-malonamide], in the experiment on TNF-alpha [1], the inhibition at 0.3 µM stood at 27%, the inhibition at 3 µM was 69% and the inhibition at 30 µM was found to be 80%.
The matching figures for `CCOC(=O)CCc1ccc(Oc2ccc(C(=Cc3ccc4c(c3)OCO4)C(=O)N(C)C)cc2)cc1` [Compound 69, 3-{4-[4-(2-benzo[1,3]dioxol-5-yl-1-dimethylcarbamoylvinyl)-phenoxy]-phenyl}-propionic acid ethyl ester]: 1%, 22% and 50%.
As for `CN(C)C(=O)/C(=C/c1cccnc1)c1ccc(Oc2ccc(CC(C(N)=O)C(N)=O)cc2)cc1` [Compound 71, 2-{4-[4-(1-dimethylcarbamoyl-2-pyridin-3-ylvinyl)-phenoxy]-benzyl}-malonamide], in the experiment on TNF-alpha [1], the inhibition at 0.3 µM was 20%, the inhibition at 3 µM came to 47% and the inhibition at 30 µM came to 65%.
The corresponding values for `CC(=O)NC(=O)CCc1ccc(Oc2ccc(/C(=C\c3ccc(F)cc3)C(=O)N(C)C)cc2)cc1` [Compound 56, 2-{4-[4-(3-acetylamino-3-oxopropyl)-phenoxy]-phenyl}-3-(4-fluorophenyl)-N,N-dimethylacrylamide] are 1%, 6% and 54%.
The corresponding values for `COc1cc(/C=C(/C(=O)N(C)C)c2ccc(Oc3ccccn3)cc2)cc(OC)c1` [Compound 66, 3-(3,5-dimethoxyphenyl)-N,N-dimethyl-2-[4-(pyridin-2-yloxy)-phenyl]-acrylamide] are 27%, 53% and 84%.
The matching figures for `CN(C)C(=O)/C(=C/c1cccnc1)c1ccc(Oc2ccc(CCC(=O)NC(N)=O)cc2)cc1` [Compound 73, N,N-dimethyl-2-{4-[4-(3-oxo-3-ureidopropyl)-phenoxy]-phenyl}-3-pyridin-3-yl-acrylamide]: 30%, 62% and 81%.
Regarding `COc1cc(/C=C(/C(=O)N(C)C)c2ccc(NC(=O)c3ccccc3)cc2)cc(OC)c1` [Compound 67, N-{4-[2-(3,5-dimethoxyphenyl)-1-dimethylcarbamoylvinyl]-phenyl}-benzamide], in the experiment with TNF-alpha [1], the inhibition at 0.3 µM worked out at 40%, the inhibition at 3 µM was found to be 62% and the inhibition at 30 µM worked out at 89%.
Take `CCOC(=O)CCc1ccc(Oc2ccc(/C(=C\c3cc(OC)cc(OC)c3)C(=O)N(C)C)cc2)cc1` [Compound 37, 3-(4-{4-[2-(3,5-dimethoxyphenyl)-1-dimethylcarbamoylvinyl]-phenoxy}-phenyl)-propionic acid ethyl ester]: in the experiment with TNF-alpha [1], the inhibition at 1 µM came out at 17%, the inhibition at 3 µM is 38%, the inhibition at 10 µM turned out to be 65% and the inhibition at 30 µM stood at 78%.
Regarding `COc1cc(/C=C(/C(=O)N(C)C)c2ccc(O)cc2)cc(OC)c1` [Compound 49, 3-(3,5-dimethoxyphenyl)-2-(4-hydroxyphenyl)-N,N-dimethylacrylamide], in the experiment on TNF-alpha [1], the inhibition at 3 µM came out at 14%, the inhibition at 10 µM stood at 47% and the inhibition at 30 µM is 54%.
In the case of `CN(Cc1cnc2nc(N)nc(N)c2n1)c1ccc(C(=O)N[C@@H](CCC(=O)O)C(=O)O)cc1` [Methotrexate, methotrexate, reference compound], the “Percent TNF Production (Mean ± SEM)” value with TNF-alpha [2] (10 mg/kg oral) amounted to 61 ± 5%.
For `CN(C)C(=O)/C(=C/c1cccnc1)c1ccc(Oc2ccc(CCC(N)=O)cc2)cc1` [Compound 77, 2-{4-[4-(2-carbamoyl-ethyl)-phenoxy]-phenyl}-N,N-dimethyl-3-pyridin-3-yl-acrylamide], the results for the “Percent TNF Production (Mean ± SEM)” value in the experiment with TNF-alpha [2] (50 mg/kg oral) and in the experiment with TNF-alpha [2] (100 mg/kg oral) were 54 ± 10% and 67 ± 20%, respectively. In addition, the “inhibition of LPS-induced TNF-alpha production in mice” value with TNF-alpha [2] is “significantly inhibited”.
As for `COc1cc(/C=C(/C(=O)N(C)C)c2ccc(Oc3ccc(CCC(N)=O)cc3)cc2)cc(OC)c1` [Compound 31, 2-{4-[4-(2-carbamoylethyl)-phenoxy]-phenyl}-3-(3,5-dimethoxyphenyl)-N,N-dimethylacrylamide], the “Percent TNF Production (Mean ± SEM)” value with TNF-alpha [2] (50 mg/kg oral) worked out at 68 ± 11%. Also, the “Percent TNF Production (Mean ± SEM)” value in the experiment with TNF-alpha [2] (100 mg/kg oral) came out at 53 ± 20%. Besides, the “inhibition of LPS-induced TNF-alpha production in mice” value with TNF-alpha [2] is given as “significantly inhibited”. Further, in the experiment with DBA/1J mice (setting [3]), the “arthritis clinical score (severity)” value is listed as “prevented the increase in severity”; the “histology of hind limbs” value was “reduction in incidence and severity of pannus formation, inflammation cell infiltration and bone/cartilage damage”. For the same molecule, the “histology of hind limbs” value with DBA/1J mice (low dose, 40 mg/kg oral twice daily 14 days) is “marked chronic inflammation of synovium with pannus formation and destruction of bone and cartilage”. Also, the “arthritis clinical score (severity)” value with DBA/1J mice (low dose, 40 mg/kg oral twice daily 14 days, compared with vehicle) is on record as “no apparent effect”. Besides, in the experiment on TNF-alpha [1], the inhibition at 1 µM was 51%, the inhibition at 3 µM came out at 73%, the inhibition at 10 µM came out at 83% and the inhibition at 30 µM turned out to be 86%.
On to `COc1cc(/C=C(/C(=O)N(C)C)c2ccc(NC(=O)c3cccc(O)c3)cc2)cc(OC)c1` [Compound 44, N-{4-[2-(3,5-dimethoxyphenyl)-1-dimethylcarbamoylvinyl]-phenyl}-3-hydroxybenzamide], for which, in the experiment with TNF-alpha [1], the inhibition at 0.3 µM came to 32%, the inhibition at 3 µM was 67% and the inhibition at 30 µM is 91%.

These data come from patent US20080188654A1, “Compounds for treatment of inflammation, diabetes and related disorders” (Theracos, Inc., priority 2001, published 2008).
